From publication PMC7412073, “Pharmacokinetics and Metabolism of Liposome-Encapsulated 2,4,6-Trihydroxygeranylacetophenone in Rats Using High-Resolution Orbitrap Liquid Chromatography Mass Spectrometry” (Molecules, 2020)
Read-outs that look alike come from different tables or passages of the source. One block for each molecule: values may come before it.

Legend:
[1] = Metabolite identification in rat blood, urine and feces (UHPLC-MS/MS); type: in vivo, Sprague-Dawley rats; design: key: B, U and F represent blood, urine and feces samples, respectively; B, U and F represent blood, urine and feces samples, respectively; B, U and F represent blood, urine and feces samples, respectively; settings: rats dosed orally with 20 mg/kg liposomes-encapsulated tHGA, samples over 24 h
Procedure: Groups 4 to 6 were used for single-dose drug metabolism study. Each rat was kept in individual metabolic cages. Urine and faeces were collected from each rat in the tHGA-treated group 4 and control group 5 at four different times over a period of 24 h. The samples were stored at −80 °C until further analysis. For the determination of plasma metabolites, blood was sampled from each rat in the control group 6, according to the same procedure as in the pharmacokinetic study. Blood samples collected from the tHGA-treated group 2 in the pharmacokinetics study were also used for the metabolism study.
For the drug metabolism study, for each rat, plasma samples collected over a period of 24 h were combined and tHGA was similarly extracted from the samples. For the urine samples, for each rat, samples collected over the 24 h period were combined and centrifuged for 15 min at 14,000 rpm. The supernatant was then vacuum-evaporated at 40 °C to a volume of 5 mL, after which, 30 mL methanol was added, the mixture sonicated for 25 min, followed by centrifuging at 10,000 rpm for 15 min. The supernatant was again vacuum-concentrated at 40 °C, to a volume of 5 mL, filtered through 0.45 μm membrane filter into an LC-MS vial and then injected (10 µL) to UHPLC-MS/MS system for spectral acquisition.
[…] collected over 24 h was homogenized with distilled water in the ratio of 1 g to 3 mL and sonicated for 10 min. From this mixture, 3 mL was taken and mixed with 9 mL methanol. After that, the mixture was sonicated for 30 min and then centrifuged at 14,000 rpm for 15 min. The supernatant was taken to dryness using a rotary evaporator at 40 °C. The residue was then reconstituted in 1 mL ACN (80%), filtered through 0.45 μm membrane filter, and injected to the UHPLC-MS/MS system for acquisition of spectra.
For the identification of tHGA and its metabolites simultaneously, MS detection was operated under a heated electrospray ion source (H-ESI II) using positive/negative switching ionization mode to maximize metabolite coverage in every injection. The H-ESI parameters were optimized as follows: spray voltage (+) and (−) 4.2 and 3.5 kV respectively, capillary temperature 320 °C, S-lens RF level 55, sheath gas flow rate 45, auxiliary gas 10 and sweep gas 2 (manufacturer’s units). Nitrogen was used for the source, Orbitrap bath gas, and the higher energy collision dissociation (HCD) cell collision. The full-scan MS data were recorded across the mass range of 50–1500 m/z. The resolution was 70,000 (FWHM) at m/z 200, with automatic gain control (AGC) target of 1 × 10^6 ions and an auto maximum ion injection time (IT).
All MS data acquired using the Q Exactive MS were controlled by Xcalibur 4.0 software (Thermo Fisher Scientific). The MS data from plasma-, urine-, and feces-treated, as well as the control samples were analyzed using Compound Discoverer software 2.1 (Thermo Fisher Scientific) for the identification of tHGA metabolites. The software extracted information about metabolite m/z values depending on a list of expected metabolites. As no standards or literature information were available to confirm tHGA metabolites structure, tentative elucidation of the metabolites was performed according to Schymanski classification. A list of putative metabolites with the probable metabolism pathway was created for peaks based on MS, MS/MS fragmentation and the isotopic pattern of tHGA. The matching percentage between measured and theoretical MS/MS spectra was determined depending on the existence/absence of theoretical fragments in the MS/MS spectra generated experimentally. In addition, the site of metabolism was determined based on the tHGA structure with the help of a web server site for metabolism predictor [27, 28].

[2] = Single-dose pharmacokinetic study of free and liposome-encapsulated tHGA in rats (plasma, LC-HRMS); type: in vivo, Sprague-Dawley rats; settings: for Fr (relative oral bioavailability): PO 20 mg/kg relative to IP 20 mg/kg tHGA-loaded liposomes, rats
Procedure: Thirty healthy male Sprague-Dawley (S.D.) rats, weighing between 180 and 225 g on the day of dosing, were kept in polypropylene cage base with stainless steel wire top clips for three days before the experiment. The living environment of the animals was controlled as follows: 12/12-h dark/light cycle, temperature maintained between 22 to 25 °C, daily feeding with commercial pellet food, and tap water. Rats were fasted 12 h before dosing and labeled with a designated number at the base of their tails. The rats were then randomly divided into six groups as follows: • Group 1 (n = 6) were dosed orally with 20 mg/kg of free tHGA. • Group 2 (n = 6) were dosed orally with 20 mg/kg of liposomes-encapsulated tHGA. • Group 3 (n = 6) were dosed intraperitoneally with 20 mg/kg of liposomes-encapsulated tHGA • Group 4 (n = 4) were dosed orally with 20 mg/kg of liposomes-encapsulated tHGA. • Group 5 (n = 4, control) were dosed orally with blank liposomes formulation (for urine and feces collection). • Group 6 (n = 4, control) were dosed orally with blank liposomes formulation (for blood collection).
Groups 1 to 3 were used for the single-dose pharmacokinetic study. An aliquot of 200 µL of blood was drawn from each rat via the tail vein into polypropylene tubes containing a disodium K2EDTA solution (10%) as an anticoagulant at the pre-specified time points; at 0.25, 0.5, 1.5, 2, 4, 8 and 24 h for groups 1 and 2 after PO dose, and at 0.08, 0.5, 1.5, 2, 4, 8 and 24 h for group 3 after IP dose. Blood samples were centrifuged at 14,000 rpm at 20 °C for 10 min to separate the plasma which was then stored under −80 °C until further analysis. Animals were allowed to feed two hours after the first sample time point.
For the pharmacokinetic study, the same procedure used in the preparation of the standard solutions was used to extract tHGA from plasma samples.
LC-MS analysis was performed using a Thermo Scientific™ Q Exactive™ Focus Hybrid Quadrupole-Orbitrap™ Mass Spectrometer (Thermo Fisher Scientific, Bremen, Germany) attached to a Thermo Scientific Dionex Ultimate 3000 Series RS pump coupled with a Thermo Scientific Dionex Ultimate 3000 Series TCC-3000RS column compartments and a Thermo Fisher Scientific Ultimate 3000 Series WPS-3000RS autosampler (Thermo Fisher Scientific, Sunnyvale, CA, USA) controlled by Xcalibur Software 4.0 (Thermo Fisher Scientific, Waltham, MA, USA). The chromatographic separation was carried out using a Hypersil GOLD C18 column (100 × 2.1 mm, 1.9 μm) (Thermo Fisher Scientific, Waltham, MA, USA) and the mobile phase consisted of water with 0.1% formic acid (solvent A) and acetonitrile with 0.1% formic acid (solvent B). Gradient elution was run at 0.3 mL/min, with 10% solvent B at the start (t = 0 min), increasing to 70% solvent B at t = 5 min. The gradient was then maintained for 3 min at 70% solvent B until t = 8 min before again increasing solvent B to 100% until the end of the run at t = 9.5 min. The temperature of the autosampler was set to 4 °C. For the metabolism study, the same chromatographic conditions were used with a different elution system. A linear gradient elution from 0% to 100% of solvent B for 45 min was used.
Mass spectrometric detection was operated under a heated electrospray ion source (H-ESI II) in negative ionization mode. The H-ESI parameters were optimized as follows: spray voltage 3.5 kV, capillary temperature 320 °C, S-lens RF level 55, sheath gas flow rate 45, auxiliary gas 10 and sweep gas 2 (manufacturer’s units). Nitrogen was used for the source, Orbitrap bath gas, and the higher energy collision dissociation (HCD) cell collision. A targeted SIM data-dependent MS/MS (tSIM/ddMS2) acquisition was used with an inclusion mass list containing m/z and retention time of tHGA. The resolution was 35,000 (FWHM) at m/z 200, with automatic gain control (AGC) target of 5 × 10^4 ions and an auto maximum ion injection time (IT). […]

[3] = Short- and long-term stability of tHGA in rat plasma QC samples; type: in vitro ADME; settings: for Stability RE (%) Short-Term (4 °C): processed rat plasma sample, autosampler 4 °C, 24 h; for Stability RE (%) Short-Term (4 °C) / Stability RE (%) Long-Term (−80 °C): n = 6; for Stability RE (%) Long-Term (−80 °C): rat plasma, 1 month
Procedure: Short- and long-term stability studies of tHGA in plasma was assessed using six replicates at two concentration levels, LQC and HQC. The QC samples were analyzed against the standard curve which was freshly prepared. The short-term stability was evaluated by analyzing the processed QC samples kept in the autosampler (4 °C) for 24 h. For long-term stability, tHGA plasma samples in low and high concentrations were stored at −80 °C for 1 month.

[4] = PO, 20 mg/kg, male S.D rats, plasma, mean n = 6, listed as Free tHGA

Source (sample in which the metabolite was detected) [1]: F
Structure (SMILES): CC(=O)c1c(O)cc(O)c(C/C=C(C)/C=C/C=C(C)C)c1O [M7]

Source (sample in which the metabolite was detected) [1]: B
Structure (SMILES): CC(=O)c1c(O)cc(OS(=O)(=O)O)c(C(O)/C=C(\C)CCC(O)=C(C)C)c1O (stereo not drawn) [M9]

Source (sample in which the metabolite was detected) [1]: F, U
Structure (SMILES): CC(=O)c1c(O)cc(O)c(C(O)/C=C(\C)CCC=C(C)C)c1O (stereo not drawn) [M3]

Source (sample in which the metabolite was detected) [1]: F
Structure (SMILES): CC(=O)c1c(O)cc(O)c(C/C=C(\C)CCCC(C)(C)O)c1O [M5]

Source (sample in which the metabolite was detected) [1]: F
Structure (SMILES): CC(=O)c1c(O)cc(O)c(C(O)/C=C(\C)CCC(O)=C(C)C)c1O (stereo not drawn) [M4]

Fr (relative oral bioavailability) ([2]; listed as Free tHGA): 9.07%
Fr (relative oral bioavailability) ([2]; listed as unformulated tHGA): 9.1%
Cmax [2, 4]: 5.35 ng/mL
t1/2 (elimination half-life) [2, 4]: 6.95 h
Tmax ([2]; Sprague-Dawley, rat, PO, 20 mg/kg, male S.D rats, plasma, mean n = 6): 0.25 h
AUC(0-t) ([2]; male, Sprague-Dawley, rat, plasma, 20 mg/kg, oral administration, rats (unit as printed in abstract), read-out: AUC0–24): 17.6 ng·h/mL
Cmax ([2]; male, Sprague-Dawley, rat, plasma, po, 20 mg/kg, PO, male S.D rats, plasma, mean n = 6, read-out: Cmax): 5.4 ng/mL
half-life ([2]; male, Sprague-Dawley, rat, plasma, po, 20 mg/kg, PO, male S.D rats, plasma, mean n = 6, read-out: t1/2 (elimination half-life) (converted)): 6.9 h
Stability RE (%) Short-Term (4 °C) ([3]; 1.5 ng/mL tHGA (LQC)): −4.66 ± 11.9%
Stability RE (%) Long-Term (−80 °C) ([3]; 1.5 ng/mL tHGA (LQC)): 5.93 ± 2.8%
Stability RE (%) Short-Term (4 °C) ([3]; 70 ng/mL tHGA (HQC)): 5.34 ± 6.9%
Stability RE (%) Long-Term (−80 °C) ([3]; 70 ng/mL tHGA (HQC)): 5.34 ± 5.1%
long-term stability, accuracy ([3]; LQC and HQC plasma samples, 1 month at −80 °C): 5.3–5.9%
Structure (SMILES): CC(=O)c1c(O)cc(O)c(C/C=C(\C)CCC=C(C)C)c1O [tHGA, 2,4,6-trihydroxy-3-geranylacetophenone]

Source (sample in which the metabolite was detected) [1]: F
Structure (SMILES): CC(=O)c1c(O)cc(O)c(C/C=C(\C)CCC(O)C(C)(C)O)c1O (stereo not drawn) [M10]

Source (sample in which the metabolite was detected) [1]: F, B
Structure (SMILES): CC(=O)c1c(O)cc(O)c(C(O)/C=C(C)/C=C/C(O)=C(C)C)c1O (stereo not drawn) [M6]

Source (sample in which the metabolite was detected) [1]: F, U
Structure (SMILES): CC(=O)c1c(O)cc(O)c(C/C=C(\C)CCC(O)=C(C)C)c1O [M2]
